Results published in patent US20250144067A1, “PERSONALIZED STARVATION THERAPY FOR CANCER” (Faeth Therapeutics, Inc., priority 2021, published 2025).
Where a name gives a salt, the structure may show the parent alone.

How the values were obtained:
[1] = test system: NCI-H292 lung cancer cells; assay: FDA drug screening, complete media vs cholesterol-free media with simvastatin (TABLE 2); format: cell-based, human; details: for Cholesterol-free media + simvastatin (0.04 μM) / Complete Media: NCI-H292 cells
[2] = test system: NCI-H292 lung cancer cells; assay: FDA drug screening, complete media vs cholesterol-free media without statin (TABLE 1); format: cell-based, human
PC9 cells = assay: Drug validation, four media conditions; format: cell-based, human; details: cholesterol-free medium+simvastatin compared to the other media conditions
Method: (§1) A series of experiments were designed to assess the effect of cholesterol depletion and statin treatment on the anti-cancer effect of drugs identified in the FDA drug screens. Cancer cells were grown in media containing cholesterol and cholesterol-free media in the presence or absence of simvastatin. The effect of the drug identified in the FDA drug screens on cancer cell growth was measured.
(§2) […]. Medium 1 was ‘complete medium’ containing all essential nutrients, including cholesterol. Medium 2 was cholesterol-free medium. Medium 3 was cholesterol-free medium supplemented with simvastatin 40 nM. Medium 4 was ‘complete medium’ containing all essential nutrients, including cholesterol, supplemented with simvastatin at the IC30 concentration for each cell line.
(§3) On Day 5, cell growth was measured by absorbance or fluorescence. For absorbance growth measurements, spent media was discarded, and wells were stained with a crystal violet staining solution, washed, and dried. 100 μL of 10% acetic acid was added to each well to release the crystal violet taken up by the cells. Plates were read using a Biotek Powerwave plate reader to determine the absorbance of the crystal violet released as an indicator of cell growth at a wavelength of 595 nm. For fluorescence growth measurements, 100 μL of a resazurin solution was added to each well and the plate incubated at 37° C. for four hours. Plates were read using a Biotek Powerwave plate reader to determine the fluorescence of reosurfin as an indicator of cell growth at a wavelength of 590 nm.
(§4) Growth curves showing absorbance of crystal violet at 595 nm or fluorescene of reosurfin at 590 nm were plotted from test wells against the logarithmic concentration of the validation drug. FIG. 9A-9C show growth of cancer cell lines in the four media conditions subjected to increasing doses of neticonazole. FIG. 10A-10D show growth of cancer cell lines in the four media conditions subjected to increasing doses of cepharanthine. FIG. 11A-11B show growth of cancer cell lines in the four media conditions subjected to increasing doses of alverine citrate. FIG. 12A-12B show growth of cancer cell lines in the four media conditions subjected to increasing doses of berbamine. FIG. 13A-13C show growth of cancer cell lines in the four media conditions subjected to increasing doses of pitolisant. FIG. 14A-14G show growth of cancer cell lines in the four media conditions subjected to increasing doses of avapritinib. FIG. 15A-15D show growth of cancer cell lines in the four media conditions subjected to increasing doses of toremifene. FIG. 16A-16C show growth of cancer cell lines in the four media conditions subjected to increasing doses of isavuconazole.

PSN1 cells = assay: Drug validation, four media conditions; format: cell-based, human; details: for anti-proliferative effect (dose-response curve shift): cholesterol-free medium+simvastatin compared to the other media conditions
Method: as §1, §2, §3, §4

H292 cells [3] = assay: Drug validation, four media conditions; format: cell-based, human; details: cholesterol-free medium+simvastatin compared to the other media conditions
Method: as §1, §2, §3, §4

H292 cells [4] = assay: Drug validation in H292 cells, three media conditions; format: cell-based, human; details: cholesterol-free medium + simvastatin 40 nM vs complete and cholesterol-free medium
Method: as §1
On Day 1, cells were seeded at a density of around 7500 cells/well in a Corning 96-well flat bottom culture plate in complete media containing 10% FBS.
On Day 5, spent media was discarded, and wells were stained with a crystal violet staining solution, washed and dried. 100 μL of 10% acetic acid was added to each well to release the crystal violet taken up by the cells. Plates were read using a Biotek Powerwave plate reader to determine the absorbance of the crystal violet released as an indicator of cell growth at a wavelength of 595 nm.
Growth curves showing absorbance of crystal violet at 595 nm were plotted from test wells against the logarithmic concentration of the validation drug. FIG. 7A-7C show growth of cancer cell lines in the three media conditions subjected to increasing doses of isavuconazole (FIG. 7A), pitolisant (FIG. 7B), or toremifene (FIG. 7C) from the FDA screen under validation. For each of the drugs being validated, there is a strong ‘left-shift’ in the dose response curve for cells are grown in the cholesterol-free medium+simvastatin.

SW480 cells = assay: Drug validation, four media conditions; format: cell-based, human
Method: as §1, §2, §3, §4

HCC827 cells = assay: Drug validation, four media conditions; format: cell-based, human; details: cholesterol-free and cholesterol-free+simvastatin media conditions
Method: as §1, §2, §3, §4

SW480 colorectal tumour = assay: Anti-tumour activity with low cholesterol diet in SW480 tumour bearing mice; format: in vivo, M-NSG mice; details: Low Chol Diet + atorvastatin 15 mg/kg daily oral gavage vs Low Chol Diet + vehicle
Excerpt: (§5) A series of in vivo experiments were designed to assess the effect of cholesterol depletion on cancer cell growth. The added role of statin treatment and additional therapeutic agents was studied by dosing mice and assessing tumor growth over a defined time period.
Immunodeficient M-NSG (NOD-Prkdc^scid Il2rgem1Smoc) mice were subcutaneously injected with human colorectal cancer SW480 cells and matrigel to initiate tumor development and randomly assigned into one of four experimental groups (n=6 per group): normal cholesterol diet “Normal Chol Diet” containing 0.2% dietary cholesterol and vehicle, low cholesterol diet “Low Chol Diet” containing less than 0.05% dietary cholesterol and vehicle, Low Chol Diet treated with atorvastatin at 15 mg/kg, or Low Chol Diet treated with toremifene at 2 mg/kg. Once the tumor volume reached ˜150 mm^3, experimental diets were commenced. Atorvastatin, vehicle, or toremifene treatment by oral gavage was initiated four days after the diet change and continued daily until the tumor volume exceeded 2000 mm^3 or the time end-point of three weeks after treatment initiation was reached. Throughout the course of the study, tumor volume was measured twice per week.

[5] = test system: NCI-H292 mucoepidermoid lung cancer tumour; assay: Anti-tumour activity with low cholesterol diet in NCI-H292 tumour bearing mice; format: in vivo, BALB/c nude mice; details: Low Chol Diet + atorvastatin 30 mg/kg daily oral gavage vs Low Chol Diet + vehicle
Excerpt: as §5
Immunodeficient BALB/c nude mice were subcutaneously injected with human mucoepidermoid lung cancer NCI-H292 cells to initiate tumor development and randomly assigned into one of three experimental groups (n=6 per group): normal cholesterol diet “Normal Chol Diet” containing 0.2% dietary cholesterol without atorvastatin; low cholesterol diet “Low Chol Diet” containing less than 0.05% dietary cholesterol without atorvastatin; or Low Chol Diet treated with atorvastatin at 30 mg/kg by oral gavage. Once the tumor volume reached ˜150 mm^3, experimental diets were commenced. Atorvastatin or vehicle treatment was initiated four days after the diet change and continued daily until the tumor volume exceeded 2000 mm^3 or the time end-point of three weeks after diet commencement was reached. Throughout the course of the study, tumor volume was measured twice per week.

PATU8901 cells = assay: Drug validation, four media conditions; format: cell-based, human; details: cholesterol-free media with simvastatin
Method: as §1, §2, §3, §4

cancer cell lines = assay: Drug validation in multiple cancer cell lines, four media conditions; format: cell-based, human; details: cholesterol-free media compared to complete media
Method: as §1
[…]. Medium 1 was ‘complete medium’ containing all essential nutrients, including cholesterol. Medium 2 was cholesterol-free medium. Medium 3 was cholesterol-free medium supplemented with simvastatin 40 nM. […]
as §3, with “and dried. […] Plates were” for “and dried. 100 μL of 10% acetic acid was added to each well to release the crystal violet taken up by the cells. Plates were”, “590 nm. […]” for “590 nm.”

[6] = FDA drug library screen, cholesterol-free media with simvastatin 0.04 μM
[7] = FDA drug library screen, complete media
[8] = complete media minus cholesterol-free media + simvastatin, >0 enhanced anti-cancer activity, about 0 neutral, <0 antagonist
[9] = NCI-H292 cells, FDA drug library screen, cholesterol-free media without statin
[10] = NCI-H292 cells, FDA drug library screen, complete media
[11] = cholesterol-free and cholesterol-free+simvastatin media conditions
[12] = NCI-H292 cells, cholesterol-free media without statin, FDA drug library screen
[13] = NCI-H292 cells, complete media, FDA drug library screen
[14] = NCI-H292 cells, cholesterol-free media without statin
[15] = complete vs cholesterol-free media, greater than 0 enhanced anti-cancer activity, about 0 neutral, below 0 antagonists

C[C@@H](c1nc(-c2ccc(C#N)cc2)cs1)[C@](O)(Cn1cncn1)c1cc(F)ccc1F [isavuconazole, reference compound]
Cholesterol-free media + simvastatin (0.04 μM) [1, 6]: 0.5246 | Complete Media [1, 7]: 0.9256 | Difference [1, 8]: 0.40 | Difference ([2]; Complete minus Cholesterol-free, greater than 0 enhanced anti-cancer activity, about 0 neutral, below 0 antagonists): −0.83 | Cholesterol-free ([2]; NCI-H292 cells in cholesterol-free media without statin): 1.746 | Complete ([2]; NCI-H292 cells in complete media): 0.9126 | anti-proliferative effect (dose-response curve shift) (PC9 cells): strong left-shift | basal viability of treated cells (PSN1 cells; cholesterol-free medium+simvastatin relative to the other three media conditions): decreased basal viability | anti-proliferative effect (dose-response curve shift) (H292 cells [3]): strong left-shift | anti-proliferative effect of the drug (dose response curve shift) (H292 cells [4]): strongly enhanced

CCN(CCCc1ccccc1)CCCc1ccccc1 [alverine citrate]
anti-proliferative effect (dose-response curve shift) (SW480 cells; cholesterol-free medium+simvastatin compared to the other media conditions): enhanced | anti-proliferative effect (dose-response curve shift) (H292 cells [3]): enhanced

CCCCCOc1ccccc1/C(=C\SC)n1ccnc1 [neticonazole, reference compound]
Complete Media ([1]; FDA drug library screen, complete media, listed as Neticonazole): 1.262 | Difference ([1]; complete media minus cholesterol-free media + simvastatin, >0 enhanced anti-cancer activity, about 0 neutral, <0 antagonist, listed as Neticonazole): 0.90 | Difference ([2]; Complete minus Cholesterol-free, greater than 0 enhanced anti-cancer activity, about 0 neutral, below 0 antagonist): −0.16 | Cholesterol-free [2, 9]: 0.9493 | Complete [2, 10]: 0.7904 | anti-proliferative effect (dose-response curve shift) (PC9 cells): strongly enhanced | anti-proliferative effect (dose-response curve shift) (PSN1 cells): strongly enhanced | anti-proliferative effect (dose-response curve shift) (H292 cells [3]): strongly enhanced

Clc1ccc(CCCOCCCN2CCCCC2)cc1 [pitolisant]
activity (dose-response curve shift) with lack of cholesterol (SW480 cells; [11]): enhanced | activity (dose-response curve shift) with lack of cholesterol (HCC827 cells): enhanced | activity (dose-response curve shift) with lack of cholesterol (PSN1 cells; [11]): enhanced | anti-proliferative effect of the drug (dose response curve shift) (H292 cells [4]): strongly enhanced

CC(C)c1c(C(=O)Nc2ccccc2)c(-c2ccccc2)c(-c2ccc(F)cc2)n1CC[C@@H](O)C[C@@H](O)CC(=O)O [atorvastatin, reference compound]
tumor growth suppression (SW480 colorectal tumour): enhanced | Cholesterol-free media + simvastatin (0.04 μM) ([1]; FDA drug library screen, cholesterol-free media with simvastatin 0.04 μM, listed as Atorvastatin): 0.6169 | Complete Media ([1]; FDA drug library screen, complete media, listed as Atorvastatin): 0.8658 | Difference ([1]; complete media minus cholesterol-free media + simvastatin, >0 enhanced anti-cancer activity, about 0 neutral, <0 antagonist, listed as Atorvastatin): 0.25 | Difference ([2]; Complete minus Cholesterol-free, >0 enhanced anti-cancer activity, about 0 neutral, <0 antagonist): 0.03 | Cholesterol-free [2, 12]: 0.8356 | Complete [2, 13]: 0.8623 | tumor growth suppression [5]: enhanced the tumor growth suppression

Cn1cc(-c2cc3c(N4CCN(c5ncc([C@@](C)(N)c6ccc(F)cc6)cn5)CC4)ncnn3c2)cn1 [avapritinib, reference compound]
Cholesterol-free media + simvastatin (0.04 μM) [1, 6]: 0.4436 | Complete Media [1, 7]: 0.749 | Difference [1, 8]: 0.31 | Cholesterol-free [2, 14]: 0.9337 | Complete ([2]; NCI-H292 cells, complete media): 0.6002 | Difference [2, 15]: −0.33 | anti-proliferative effect (dose-response curve shift) (PATU8901 cells): strong left-shift | anti-proliferative effect (dose-response curve shift) (PSN1 cells): strong left-shift | anti-proliferative effect (dose-response curve shift) (H292 cells [3]): strong left-shift | anti-proliferative effect (dose-response curve shift) with lack of cholesterol (cancer cell lines): enhanced

O=C1O[C@H](CO)[C@@H](O)[C@H](O)[C@H]1O [D-(+)-Glucono-1,5-lactone]
Cholesterol-free media + simvastatin (0.04 μM) [1, 6]: 1.196 | Complete Media [1, 7]: 1.644 | Difference [1, 8]: 0.45 | Cholesterol-free [2, 14]: 1.227 | Complete ([2]; NCI-H292 cells, complete media): 0.906 | Difference [2, 15]: −0.32

C=C1CC[C@@H]2[C@](C)(COC(=O)CCC(=O)[O-])[C@H](OC(=O)CCC(=O)O)CC[C@@]2(C)[C@@H]1/C=C/C1=CCOC1=O.[K+] [Kalii Dehydrographolidi Succinas]
Cholesterol-free media + simvastatin (0.04 μM) [1, 6]: 0.8904 | Complete Media [1, 7]: 1.183 | Difference ([1]; complete media minus cholesterol-free media + simvastatin, […]): 0.29 | Cholesterol-free [2, 14]: 1.388 | Complete ([2]; NCI-H292 cells, complete media): 1.081 | Difference ([2]; complete vs cholesterol-free media, […]): −0.31

C[C@H](CCC(=O)NCCS(=O)(=O)O)[C@H]1CC[C@H]2[C@@H]3[C@H](O)C[C@@H]4C[C@H](O)CC[C@]4(C)[C@H]3CC[C@]12C [Taurochenodeoxycholic acid]
Cholesterol-free media + simvastatin (0.04 μM) ([1]; drug in cholesterol-free media with simvastatin 0.04 μM): 1.179 | Complete Media ([1]; drug in complete media): 1.003 | Difference ([1]; complete media vs cholesterol-free media + simvastatin (0.04 μM), […]): −0.18 | Difference ([2]; Complete minus Cholesterol-free, […]): −0.12 | Cholesterol-free [2, 9]: 0.9676 | Complete [2, 10]: 0.8469

NCCS [Cysteamine hydrochloride]
Cholesterol-free media + simvastatin (0.04 μM) [1, 6]: 0.9975 | Complete Media [1, 7]: 0.86 | Difference ([1]; complete media vs cholesterol-free media + simvastatin (0.04 μM), >0 enhanced anti-cancer activity, about 0 neutral, <0 antagonist): −0.14 | Cholesterol-free [2, 12]: 1.255 | Complete [2, 13]: 1.431 | Difference ([2]; complete vs cholesterol-free media, >0 enhanced anti-cancer activity, about 0 neutral, <0 antagonist): 0.18
